A word on the Emax: it is the greatest response seen or fitted, relative to the assay's reference.

Consider seven molecules from patent US8921306B2 (The University of Queensland, priority 2010, dated 2014).

Data set [1] can be described thus: Serum stability in normal human serum. It counts as in vitro ADME. The conditions noted are these: 37° C., LCMS, read-out: half-life (t1/2) in normal human serum. As to the method:
Peptide stability was assessed in normal human serum (Sigma-Aldrich, NY, USA). The peptides were incubated with the serum in a water bath at 37° C. and aliquots were removed at specific time points. Serum proteins were precipitated after adding 3-fold excess acetonitrile, and proteins were precipitated by centrifugation at 17,000 rpm for 15 min. The supernatants were collected and analyzed by LCMS (4000 QTRAPR, Applied Biosystems) and all data normalized to the initial time point.

The subject of a further data set is Human erythrocytes. The data set is described as follows: Haemolysis assay. It counts as cell-based. The conditions noted are these: 37° C., 1 hour, absorbance at 544 nm. The protocol:
Human erythrocytes were obtained from the Australian Red Cross Blood Service and diluted with PBS (pH 7.4) 1:50 to give a positive control reading of between 1.5-2.0 at 544 nm.
Equal amounts of cells were incubated with various concentrations of peptides and incubated at 37° C. for 1 hour. Cells were pelleted by centrifugation at 17,000 rpm for 5 minutes on a bench top centrifuge and the supernatant was collected. Haemolysis was assessed by reading the absorbance at 544 nm and normalized to 0% (PBS) and 100% (0.1% Triton-X100). This work was done with UQ ethics (200600011) and ARCBS (08-01QLD-07) approval.

The nature of data set [2]: Circular dichroism spectroscopy (helicity). It counts as physicochemical. The protocol: CD measurements were performed using a Jasco model J-710 spectropolarimeter which was routinely calibrated with (1S)-(+)-10-camphorsulfonic acid. A stock solution of 1-2 mg of peptide was dissolved in 1 mL of water. Separate 500 μL solutions of 50, 100, 200 and 400 μM were then prepared using an appropriate amount of stock solution and making up the different with 10 mM Phosphate Buffer (final pH 7.1). […] Jasco quartz cell over the wavelength range 260-185 nm at 100 nm/min. with a bandwidth of 1.0 nm, response time of 2 s, resolution step width of 1 nm and sensitivity of 20-50 Mdeg. Each spectrum represents the average of 5 scans. Spectra were analyzed using the spectral analysis software and smoothed using ‘adaptive smoothing’ function. Concentrations were determined using the PULCON method. [Wider, Dreier, 2006, J. Am. Chem. Soc. 128:2571-2576]
The incorporation of two lactam bridges induced appreciable helicity, monitored at 222 nm, and was calculated to range between 32-77% helicity. […] This is due to the fact that residues 1-6 (or 1-5 in 6) are not constrained and would not be expected to be in a helical conformation as they feature amino acids that have little or no propensity to adopt helices in proteins. To determine whether the exocyclic regions were the sole cause of low helicity, SEQ ID NO:15 without the N-terminal message was investigated further. This 12-residue peptide features eight residues (K, R, Q) known to favor α-helicity in proteins, and was 60% helical in phosphate buffer by CD spectral analysis. The serine residue is conserved within the sequence of many of these peptides and is known to be a helix breaker.
On the technique in general: Circular dichroism is the unequal absorption of left and right circularly polarised light.

For data set [3], the target named is T1, ORL-1 receptor (Mus musculus, UniProt P35377).
T1 construct: Neuro-2a cells were a gift from Professor John Mattick's laboratory; endogenous in cells; host or cells: Neuro-2a cells
T1 sequence (P35377 whole entry): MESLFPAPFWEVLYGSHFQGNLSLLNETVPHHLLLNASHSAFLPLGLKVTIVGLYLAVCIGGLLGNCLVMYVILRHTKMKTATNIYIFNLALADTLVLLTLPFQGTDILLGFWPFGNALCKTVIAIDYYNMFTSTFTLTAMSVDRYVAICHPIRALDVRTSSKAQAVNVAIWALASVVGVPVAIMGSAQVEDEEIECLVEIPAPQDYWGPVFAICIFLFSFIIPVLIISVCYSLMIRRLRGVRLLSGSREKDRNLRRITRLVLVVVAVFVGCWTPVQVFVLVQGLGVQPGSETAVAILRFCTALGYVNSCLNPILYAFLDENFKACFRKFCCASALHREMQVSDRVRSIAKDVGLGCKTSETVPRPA
Description: Agonist functional activity assessed by ERK phosphorylation (pERK) in Neuro-2a cells. It counts as cell-based. The protocol: (§1) Neuro-2a cells were a gift from Professor John Mattick's laboratory (Institute of Molecular Bioscience, University of Queensland) and were cultured in Gibco® DMEM (Invitrogen, CA, USA) supplemented with 10% FBS (Invitrogen, CA, USA), GIBCO® Pen/Strep (50 units/mL penicillin and 50 μg/mL streptomycin, Invitrogen, CA, USA) and GIBCO® NEAA (1× concentration, Invitrogen, CA, USA). Cells were split 1:10 every 3 days.
(§2) All cells were incubated at 37° C. and 5% CO2. When treated with pertussis toxin (PTX, catalogue number P7208, Sigma-Aldrich, NY, USA), cells were incubated with 500 ng/mL for 15 hours before use. Cells treated with MEK inhibitor PD98059 (catalogue number PHZ1164, Invitrogen, CA, USA) were preincubated with 50 μM for 1 hour before use.
(§3) Cells were placed in 12-well plates (NUNC™, NY, USA) and allowed to adhere for 24-36 h. […]
(§4) Membranes were washed 3×10 minutes with TBE (with 0.1% Tween-20) and incubated with a primary antibody. […] Radiography was quantified using ImageJ (ImageI 1.36b, NIH).
(§5) pERK and total ERK concentrations were determined using a modified protocol for the AlphaScreen Surefire Assay. […] The ratio of pERK to total ERK was determined using equation 1 and normalized to control. […]
(§6) Concentration responses were analyzed using non-linear regression (variable slope) (Prism5, GraphPad Software) and data is presented as either EC50 (for agonists) or IC50 (antagonists). […]

A further data set can be described thus: circular dichroism. Particulars: 10 mM phosphate; pH 7.4; 22 °C; 50-400 uM.
The next data set concerns C57BL/6 mice. The data set is described as follows: Anti-nociceptive activity in mice, hot plate front paw withdrawal latency. It counts as in vivo. Particulars: co-administered 200 pmol with SEQ ID NO:8 (200 pmol). The protocol:
Mice (C57BL/6; n=45) were brought into the experimental room for at least 30 minutes prior to testing. They were then individually placed on an accredited hot plate heated to 53±0.54° C. and timed until any front paw withdrawal, licking or jumping behaviour was recorded (baseline response). Mice were not left on the hot plate for longer than 30 sec. […] Mice were then individually placed on the hot plate again at time points 1, 5, 15, 30, 45 and 60 min post injection. Each test was video monitored.
In a parallel experiment, agonist of SEQ ID NO:8 was co-administered with the helical antagonist of SEQ ID NO:13, where upon the increased paw withdrawal latency produced by agonist of SEQ ID NO:8 alone was abolished. This confirms that the helix constrained peptide of SEQ ID NO:13 is a potent antagonist of SEQ ID NO:8 in vivo.

For data set [4], the target named is T1, ORL-1 receptor. The data set is described as follows: Antagonist functional activity assessed by ERK phosphorylation (pERK) in Neuro-2a cells challenged with 100 nM nociceptin(1-17)-NH2. Type of data set: cell-based. The protocol: as §1, §2, §3, §4, §5, §6

Regarding `CC(C)C[C@H](NC(=O)[C@H](CCCCN)NC(=O)[C@H](CCCN=C(N)N)NC(=O)[C@H](C)NC(=O)[C@H](CO)NC(=O)[C@H](CCCCN)NC(=O)[C@H](CCCN=C(N)N)NC(=O)[C@H](C)NC(=O)CNC(=O)[C@@H](NC(=O)[C@H](Cc1ccccc1)NC(=O)CNC(=O)CNC(=O)[C@@H](N)Cc1ccccc1)[C@@H](C)O)C(=O)N[C@@H](C)C(=O)N[C@@H](CC(N)=O)C(=O)N[C@@H](CCC(N)=O)C(=O)O` [SEQ ID NO:1, reference compound], the half-life in data set [1] is at most 1 h. The haemolytic activity result in the data set with Human erythrocytes is given as “Neither of the cyclic peptides tested (SEQ ID NOs:7 AND 8), nor the unconstrained nociceptin(1-17)-OH (SEQ ID NO:1) had any haemolytic activity”.
With `C[C@@H]1NC(=O)[C@@H](NC(=O)[C@H](CCCCN)NC(=O)[C@H](CCCN=C(N)N)NC(=O)[C@@H]2CC(=O)NCCCC[C@H](NC(=O)CNC(=O)[C@@H](NC(=O)[C@H](Cc3ccccc3)NC(=O)CNC(=O)CNC(=O)[C@@H](N)Cc3ccccc3)[C@@H](C)O)C(=O)N[C@@H](CCCN=C(N)N)C(=O)N[C@@H](CCCCN)C(=O)N[C@@H](CO)C(=O)N2)CCCCNC(=O)C[C@@H](C(N)=O)NC(=O)[C@H](CCC(N)=O)NC(=O)[C@H](CC(N)=O)NC1=O` [SEQ ID NO:7, H-FGGFTG[KRKSD]RK[KANQD]-NH2], the half-life in data set [1] was over 6 h. Also, the haemolytic activity result in the data set on Human erythrocytes is “Neither of the cyclic peptides tested (SEQ ID NOs:7 AND 8), nor the unconstrained nociceptin(1-17)-OH (SEQ ID NO:1) had any haemolytic activity”.
In the case of `C[C@@H](O)[C@H](NC(=O)[C@H](Cc1ccc(F)cc1)NC(=O)CNC(=O)CNC(=O)[C@@H](N)Cc1ccccc1)C(=O)NCC(=O)N[C@H]1CCCCNC(=O)C[C@@H](C(=O)N[C@@H](CCCN=C(N)N)C(=O)N[C@@H](CCCCN)C(=O)N[C@H]2CCCCNC(=O)C[C@@H](C(N)=O)NC(=O)[C@H](CCC(N)=O)NC(=O)[C@H](CC(N)=O)NC(=O)[C@H](CCCCN)NC2=O)NC(=O)[C@H](CO)NC(=O)[C@H](CCCCN)NC(=O)[C@H](CCCN=C(N)N)NC1=O` [SEQ ID NO:8, H-FGGF(4-F)TG[KRKSD]RK[KKNQD]-NH2], in data set [1], the half-life is over 6 h. The haemolytic activity entry in the data set with Human erythrocytes was “Neither of the cyclic peptides tested (SEQ ID NOs:7 AND 8), nor the unconstrained nociceptin(1-17)-OH (SEQ ID NO:1) had any haemolytic activity”.
For the molecule `CC(C)C[C@H](NC(=O)[C@H](CCCCN)NC(=O)[C@H](CCCNC(=N)N)NC(=O)[C@H](C)NC(=O)[C@H](CO)NC(=O)[C@H](CCCCN)NC(=O)[C@H](CCCNC(=N)N)NC(=O)[C@H](C)NC(=O)CNC(=O)[C@@H](NC(=O)[C@H](Cc1ccccc1)NC(=O)CNC(=O)CNC(=O)[C@@H](N)Cc1ccccc1)[C@@H](C)O)C(=O)N[C@@H](C)C(=O)N[C@@H](CC(N)=O)C(=O)N[C@@H](CCC(N)=O)C(=O)O` [compound 1], the “fH (buffer)” value in data set [2] (10 mM phosphate buffer (pH 7.4) at 22° C., fH calculated based on θ at 222 nm) is recorded as 0.02. The “fH (TFE*)” value in data set [2] (buffer: TFE 50:50, 22° C.) worked out at 0.15. The same molecule returned an Emax on ORL-1 receptor [3] (N2a) of 90 ± 7%. In the data set “circular dichroism”, this molecule showed a helicity of 0.02 frac.
In data set [2] (phosphate buffer, CD monitored at 222 nm), “Ac-[KRKSD]RK[KKNQD]-NH2 (XRKSXRKXKNQX; N-acetyl, cyclic lactams, C-amide) [SEQ ID NO:15]” yielded a helicity of 60%.
Take “BzlGGGF(4-F)TG[KRKSD]RK[KKNQD]-NH2 (XGGXTGXRKSXRKXKNQX; N-benzyl, 4-F-Phe, cyclic lactams, C-amide) [SEQ ID NO:13]”: the “effect on increased paw withdrawal latency produced by agonist SEQ ID NO:8” value in the data set with C57BL/6 mice was “abolished”. The “agonist activity at single point concentration” value with ORL-1 receptor [3] (1 μM) is “neither showed significant agonist activity”. In addition, the “improvement in antagonist activity (fold)” value with ORL-1 receptor [4] (constrained relative to unconstrained analogue) was “over four-fold”.
With “BzlGlyGGFT[KARKD][KRKLD]-NH2 (XGGFTXARKXXRKLX; N-benzyl, cyclic lactams, C-amide) [SEQ ID NO:14]”, in the data set with ORL-1 receptor [4] (up to 3 μM), the antagonist activity entry is “abolished antagonist activity”.
